{"source": "ChEMBL document CHEMBL5634092", "about": "“Design, synthesis, and biological evaluation of novel HDAC/CD13 dual inhibitors for the treatment of cancer” (Eur J Med Chem, 2023)", "key": {"Aminopeptidase N [1]": {"biological_target": "T1, Aminopeptidase N (Sus scrofa, UniProt P15145)", "T1 sequence (P15145 whole entry)": "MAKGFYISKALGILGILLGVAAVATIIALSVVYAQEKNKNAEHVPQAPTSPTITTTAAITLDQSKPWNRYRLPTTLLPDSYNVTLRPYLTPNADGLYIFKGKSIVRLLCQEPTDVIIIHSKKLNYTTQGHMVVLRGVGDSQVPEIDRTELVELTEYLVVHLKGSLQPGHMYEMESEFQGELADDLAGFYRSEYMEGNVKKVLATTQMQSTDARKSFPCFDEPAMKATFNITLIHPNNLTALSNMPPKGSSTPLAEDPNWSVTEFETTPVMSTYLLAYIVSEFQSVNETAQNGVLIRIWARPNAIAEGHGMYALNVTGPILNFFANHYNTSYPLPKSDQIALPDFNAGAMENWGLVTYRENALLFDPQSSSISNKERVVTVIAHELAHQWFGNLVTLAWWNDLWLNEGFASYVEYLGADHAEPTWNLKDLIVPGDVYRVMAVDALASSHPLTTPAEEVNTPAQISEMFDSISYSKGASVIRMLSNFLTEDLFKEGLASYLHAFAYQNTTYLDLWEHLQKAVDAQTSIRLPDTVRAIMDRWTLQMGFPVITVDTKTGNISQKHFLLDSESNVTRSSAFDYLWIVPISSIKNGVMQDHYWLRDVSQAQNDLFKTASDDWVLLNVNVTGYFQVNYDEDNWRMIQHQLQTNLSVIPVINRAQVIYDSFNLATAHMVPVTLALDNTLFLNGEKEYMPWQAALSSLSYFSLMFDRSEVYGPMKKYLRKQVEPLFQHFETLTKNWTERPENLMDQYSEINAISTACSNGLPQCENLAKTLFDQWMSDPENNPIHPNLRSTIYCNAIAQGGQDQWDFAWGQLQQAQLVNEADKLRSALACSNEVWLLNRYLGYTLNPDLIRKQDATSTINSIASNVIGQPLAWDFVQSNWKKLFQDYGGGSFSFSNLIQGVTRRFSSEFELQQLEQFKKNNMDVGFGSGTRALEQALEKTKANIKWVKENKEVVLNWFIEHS", "assay": "Inhibition of porcine kidney CD13 using L-leucine-p-nitroanilide as substrate incubated for 30 mins by microplate reader analysis"}, "Aminopeptidase N [2]": {"biological_target": "Aminopeptidase N (Homo sapiens, UniProt P15144)", "sequence (P15144 whole entry)": "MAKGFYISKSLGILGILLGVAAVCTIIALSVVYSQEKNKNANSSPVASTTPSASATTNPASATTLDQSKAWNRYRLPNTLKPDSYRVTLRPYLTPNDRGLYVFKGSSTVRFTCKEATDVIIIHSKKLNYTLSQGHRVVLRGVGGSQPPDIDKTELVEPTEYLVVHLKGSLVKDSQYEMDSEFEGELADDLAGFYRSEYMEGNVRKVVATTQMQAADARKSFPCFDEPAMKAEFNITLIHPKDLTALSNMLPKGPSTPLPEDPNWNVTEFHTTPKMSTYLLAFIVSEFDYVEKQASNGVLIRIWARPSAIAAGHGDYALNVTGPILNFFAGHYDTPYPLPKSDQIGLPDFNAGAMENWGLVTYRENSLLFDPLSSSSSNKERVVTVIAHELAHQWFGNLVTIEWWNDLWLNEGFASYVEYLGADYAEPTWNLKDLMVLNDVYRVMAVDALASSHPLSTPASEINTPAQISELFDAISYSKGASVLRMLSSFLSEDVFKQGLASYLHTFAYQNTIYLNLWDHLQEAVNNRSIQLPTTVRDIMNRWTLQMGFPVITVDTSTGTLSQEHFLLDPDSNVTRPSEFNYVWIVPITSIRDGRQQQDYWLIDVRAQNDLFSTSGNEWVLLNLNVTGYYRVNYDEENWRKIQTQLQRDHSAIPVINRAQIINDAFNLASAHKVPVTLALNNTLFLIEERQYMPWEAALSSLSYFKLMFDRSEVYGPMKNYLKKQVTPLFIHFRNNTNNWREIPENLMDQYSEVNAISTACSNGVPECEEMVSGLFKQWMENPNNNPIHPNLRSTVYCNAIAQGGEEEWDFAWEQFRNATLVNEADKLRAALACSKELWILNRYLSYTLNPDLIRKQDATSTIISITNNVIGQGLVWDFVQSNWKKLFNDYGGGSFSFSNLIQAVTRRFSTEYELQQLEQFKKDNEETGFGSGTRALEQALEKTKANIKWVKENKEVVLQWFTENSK", "assay": "Inhibition of human CD13 using L-leucine-p-nitroanilide as substrate incubated for 30 mins by microplate reader analysis"}, "[3]": {"assay": "Stability of compound in artificial gastric juice at 0.4 mg/mL measured after 24 hrs by HPLC analysis", "type": "ADME", "conditions": "simulated gi fluid"}, "Histone deacetylase 5": {"biological_target": "Histone deacetylase 5 (Homo sapiens, UniProt Q9UQL6)", "sequence (Q9UQL6 whole entry)": "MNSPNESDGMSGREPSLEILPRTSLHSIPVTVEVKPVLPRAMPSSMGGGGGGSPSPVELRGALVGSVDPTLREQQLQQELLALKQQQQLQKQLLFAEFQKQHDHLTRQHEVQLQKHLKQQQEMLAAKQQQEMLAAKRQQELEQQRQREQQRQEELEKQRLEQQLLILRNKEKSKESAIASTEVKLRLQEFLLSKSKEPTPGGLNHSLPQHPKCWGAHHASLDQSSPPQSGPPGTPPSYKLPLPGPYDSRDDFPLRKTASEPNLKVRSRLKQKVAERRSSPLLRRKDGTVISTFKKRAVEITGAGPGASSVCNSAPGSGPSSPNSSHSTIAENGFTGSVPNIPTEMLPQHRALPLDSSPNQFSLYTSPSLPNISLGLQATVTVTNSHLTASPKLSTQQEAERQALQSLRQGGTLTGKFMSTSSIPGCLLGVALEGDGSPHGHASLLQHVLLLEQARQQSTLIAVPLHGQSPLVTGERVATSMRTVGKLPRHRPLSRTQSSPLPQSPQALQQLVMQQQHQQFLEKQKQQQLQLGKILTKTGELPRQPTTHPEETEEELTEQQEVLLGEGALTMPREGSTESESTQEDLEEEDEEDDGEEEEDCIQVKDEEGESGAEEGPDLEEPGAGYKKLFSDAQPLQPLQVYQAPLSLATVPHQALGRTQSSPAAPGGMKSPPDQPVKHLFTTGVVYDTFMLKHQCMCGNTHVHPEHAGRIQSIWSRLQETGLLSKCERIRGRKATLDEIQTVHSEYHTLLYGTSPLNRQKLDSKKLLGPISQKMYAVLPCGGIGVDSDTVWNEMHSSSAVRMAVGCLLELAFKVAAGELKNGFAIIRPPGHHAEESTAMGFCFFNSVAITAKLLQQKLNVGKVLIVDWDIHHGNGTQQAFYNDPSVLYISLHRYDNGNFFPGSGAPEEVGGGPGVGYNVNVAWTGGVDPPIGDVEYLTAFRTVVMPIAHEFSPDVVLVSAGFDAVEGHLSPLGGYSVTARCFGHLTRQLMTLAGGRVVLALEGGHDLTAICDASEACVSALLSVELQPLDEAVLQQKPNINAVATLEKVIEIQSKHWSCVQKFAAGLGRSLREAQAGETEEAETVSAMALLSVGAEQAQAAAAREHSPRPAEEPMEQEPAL", "assay": "Inhibition of human HDAC5 using Boc-Lys (tri-fluoroacetyl)-AMC as substrate incubated for 1 hr followed by substrate addition and further incubated for 2 hrs by fluorescence assay"}, "[4]": {"biological_target": "T2, Protein deacetylase HDAC6 (Homo sapiens, UniProt Q9UBN7)", "T2 sequence (Q9UBN7 whole entry)": "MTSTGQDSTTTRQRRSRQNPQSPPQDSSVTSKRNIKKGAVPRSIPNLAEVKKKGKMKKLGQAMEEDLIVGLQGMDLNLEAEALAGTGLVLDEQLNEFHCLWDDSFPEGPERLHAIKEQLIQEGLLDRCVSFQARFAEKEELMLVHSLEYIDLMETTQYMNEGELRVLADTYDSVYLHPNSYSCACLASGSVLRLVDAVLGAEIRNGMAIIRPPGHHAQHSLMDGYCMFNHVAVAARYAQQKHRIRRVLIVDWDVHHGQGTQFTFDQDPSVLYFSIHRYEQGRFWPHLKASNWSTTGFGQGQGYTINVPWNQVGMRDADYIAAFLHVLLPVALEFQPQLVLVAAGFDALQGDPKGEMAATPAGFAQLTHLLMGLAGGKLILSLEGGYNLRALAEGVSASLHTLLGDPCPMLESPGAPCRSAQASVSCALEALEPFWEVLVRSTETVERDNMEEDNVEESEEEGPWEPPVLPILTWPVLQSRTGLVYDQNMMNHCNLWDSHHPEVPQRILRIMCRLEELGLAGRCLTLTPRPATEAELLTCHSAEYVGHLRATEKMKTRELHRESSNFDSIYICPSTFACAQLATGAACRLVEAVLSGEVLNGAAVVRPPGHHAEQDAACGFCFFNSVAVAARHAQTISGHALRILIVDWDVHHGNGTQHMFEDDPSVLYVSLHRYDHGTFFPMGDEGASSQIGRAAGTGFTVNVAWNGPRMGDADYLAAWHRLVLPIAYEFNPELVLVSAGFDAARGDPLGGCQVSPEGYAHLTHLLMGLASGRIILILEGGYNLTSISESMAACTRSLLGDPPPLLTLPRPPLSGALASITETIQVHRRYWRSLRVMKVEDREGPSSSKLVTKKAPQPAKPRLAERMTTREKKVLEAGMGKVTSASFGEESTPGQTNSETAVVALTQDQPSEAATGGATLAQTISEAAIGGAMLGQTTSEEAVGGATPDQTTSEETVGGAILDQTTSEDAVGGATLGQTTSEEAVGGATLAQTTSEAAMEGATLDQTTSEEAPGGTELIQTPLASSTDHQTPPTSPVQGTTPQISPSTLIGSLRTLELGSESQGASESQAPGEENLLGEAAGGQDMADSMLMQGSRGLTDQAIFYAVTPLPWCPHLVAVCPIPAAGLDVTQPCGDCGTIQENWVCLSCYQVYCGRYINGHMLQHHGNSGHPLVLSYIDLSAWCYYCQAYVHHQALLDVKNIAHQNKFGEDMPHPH", "assay": "Inhibition of human HDAC6 using Boc-Lys (acetyl)-AMC as substrate incubated for 1 hr followed by substrate addition and further incubated for 2 hrs by fluorescence assay"}}}
{"smiles": "CCCNNC(=O)c1ccc(CNC(=O)[C@H](CC(C)C)NC(=O)[C@@H](O)[C@H](N)Cc2ccccc2)cc1.Cl", "values": [{"measurement": "IC50", "setting": "Aminopeptidase N [1]", "result": 530, "unit": "nM"}, {"measurement": "IC50", "setting": "Aminopeptidase N [2]", "result": 340, "unit": "nM"}, {"measurement": "Stability", "setting": "[3]", "result": "Stable"}, {"measurement": "IC50", "setting": "Histone deacetylase 5", "result": "> 10000", "unit": "nM"}, {"measurement": "IC50", "setting": "[4]", "result": "> 10000", "unit": "nM"}]}
